According to patent publication US12215085B2 (priority 2019, dated 2025):
Structures can show the parent of a compound that is named as a salt. Marks after values point to notes of the source that are not given here.

How the values were obtained:
[1] = tested on: cholinesterase B (Homo sapiens); assay: In vitro inhibition of cholinesterase B; type: biochemical; conditions: in vitro tests; multiple of rivastigmine
cholinesterase D = cholinesterase D (Homo sapiens, UniProt P06276); type: biochemical; conditions: in vitro tests; multiple of rivastigmine
[2] = tested on: rats with beta-amyloid induced senile dementia; assay: Water maze test, beta-amyloid induced senile dementia rats; type: in vivo, rat; conditions: for adopted strategy for reaching the platform (the peripheral type and the random type %) / orientation angle for reaching the platform / speed for reaching the platform / swimming path length for reaching the platform / time for reaching the platform: 1.75 mg/kg intragastric; for orientation angle for reaching the platform / speed for reaching the platform / swimming path length for reaching the platform / time for reaching the platform: x ± s
[3] = tested on: rats with beta-amyloid induced senile dementia; assay: Step-down test, beta-amyloid induced senile dementia rats; type: in vivo, rat; conditions: donepezil hydrochloride 1.75 mg/kg, P<0.05
[4] = tested on: rats with common carotid artery occlusion-induced vascular dementia; assay: Water maze test, common carotid artery occlusion-induced vascular dementia rats; type: in vivo, rat; conditions: for orientation angle for reaching the platform / speed for reaching the platform / swimming path length for reaching the platform / time for reaching the platform: x ± s
Source text: (§1) A rat blood vessel dementia model was made according to the references [ZHAO Xian-lin, FANG Xiu-bin, LI Dong-pei. Establishment of Vascular Dementia Model in Rats, J Chin Med Univ, 2002, 31 (3): 166-168; WANG Yong-yan, Zhang Bo-li, Editor-in-chief. Modern Chinese Medicine Clinic and Research on Vascular Dementia, People's Medical Publishing House, October 2003, First Version 214]: Chloral hydrate 0.4 g/kg was intraperitoneally injected for anesthetizing rats, and bilateral common carotid arteries were isolated and ligated. The animals were fed for 16 weeks, divided into groups on the last 7 days, and administered. The normal control group and the model group were administrated through the intragastric route with distilled water by 0.5 ml/100 g, the positive control group was administrated through the intragastric route with donepezil hydrochloride by 1.75 mg/kg (equivalent to 3.85 times the clinical daily dosage of 5 mg/70 kg), the low, medium and high-dose groups of Crystal Form A of octahydroaminoacridine succinate were administrated through the intragastric route with Crystal Form A of octahydroaminoacridine succinate by 0.7, 1.4 and 2.8 mg/kg (equivalent to 0.96, 1.92 and 3.85 times the clinical daily dosage of 8 mg/70 kg). The water maze test and the step-down test were carried out after continuous administration for 7 days, and the administration was continued during the test period. The water maze test was continuously performed for 7 days, in the first 6 days, in four different water entry points of quadrants 1, 2, 3 and 4, the time, the swimming path length, the orientation angle and the average speed of the rat reaching the platform were measured, meanwhile, the strategy for reaching the platform adopted by rats was observed, on the 7th day, the platform was removed, the number of rats crossing the platform in 2 minutes, the residence time in the platform area, the residence time in the platform quadrants, the percentage of the swimming path length in the platform area quadrants to the total swimming path length, the average speed and the orientation angle were measured. After the water maze test was finished, the step-down test was performed, and the number of electric shocks (or called as the error number) received by each rat within 5 minutes was recorded as the learning performance. The test was performed again after 24 hours, namely, the memory retention test, and the latent period for stepping-down the platform for the first time and the error number in five minutes were recorded. After the step-down test was finished, the brain was taken quickly for pathological examination, and the pathological changes of the hippocampus and the cortex were observed.

[5] = tested on: rats with common carotid artery occlusion-induced vascular dementia; assay: Step-down test, common carotid artery occlusion-induced vascular dementia rats; type: in vivo, rat
Source text: as §1

[6] = donepezil hydrochloride 1.75 mg/kg, Day 1 to Day 6
[7] = donepezil hydrochloride 1.75 mg/kg, Day 2, P<0.05
[8] = donepezil hydrochloride 1.75 mg/kg, Day 7
[9] = donepezil hydrochloride 1.75 mg/kg, Day 7, P<0.05
[10] = donepezil hydrochloride 1.75 mg/kg, P<0.05 or P<0.01
[11] = step-down method, 1.75 mg/kg intragastric, x ± s

Chain of cholinesterase B (Homo sapiens) (P22303 32-614): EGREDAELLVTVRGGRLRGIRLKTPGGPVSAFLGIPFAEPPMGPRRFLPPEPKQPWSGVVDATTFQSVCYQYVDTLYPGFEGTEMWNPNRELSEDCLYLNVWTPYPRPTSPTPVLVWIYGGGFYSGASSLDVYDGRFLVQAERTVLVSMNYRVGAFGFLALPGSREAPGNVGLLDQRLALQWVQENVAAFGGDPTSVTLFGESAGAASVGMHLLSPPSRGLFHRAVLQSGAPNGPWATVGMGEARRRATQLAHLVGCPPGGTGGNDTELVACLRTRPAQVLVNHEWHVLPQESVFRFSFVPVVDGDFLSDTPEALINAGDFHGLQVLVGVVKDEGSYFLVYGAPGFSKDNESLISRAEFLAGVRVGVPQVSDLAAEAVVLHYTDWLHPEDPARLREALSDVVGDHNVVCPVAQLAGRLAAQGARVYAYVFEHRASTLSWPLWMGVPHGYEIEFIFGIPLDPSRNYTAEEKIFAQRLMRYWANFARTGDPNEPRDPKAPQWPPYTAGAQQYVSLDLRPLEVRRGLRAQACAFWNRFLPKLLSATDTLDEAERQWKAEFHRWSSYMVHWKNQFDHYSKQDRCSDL
Chain of cholinesterase D (P06276 29-602): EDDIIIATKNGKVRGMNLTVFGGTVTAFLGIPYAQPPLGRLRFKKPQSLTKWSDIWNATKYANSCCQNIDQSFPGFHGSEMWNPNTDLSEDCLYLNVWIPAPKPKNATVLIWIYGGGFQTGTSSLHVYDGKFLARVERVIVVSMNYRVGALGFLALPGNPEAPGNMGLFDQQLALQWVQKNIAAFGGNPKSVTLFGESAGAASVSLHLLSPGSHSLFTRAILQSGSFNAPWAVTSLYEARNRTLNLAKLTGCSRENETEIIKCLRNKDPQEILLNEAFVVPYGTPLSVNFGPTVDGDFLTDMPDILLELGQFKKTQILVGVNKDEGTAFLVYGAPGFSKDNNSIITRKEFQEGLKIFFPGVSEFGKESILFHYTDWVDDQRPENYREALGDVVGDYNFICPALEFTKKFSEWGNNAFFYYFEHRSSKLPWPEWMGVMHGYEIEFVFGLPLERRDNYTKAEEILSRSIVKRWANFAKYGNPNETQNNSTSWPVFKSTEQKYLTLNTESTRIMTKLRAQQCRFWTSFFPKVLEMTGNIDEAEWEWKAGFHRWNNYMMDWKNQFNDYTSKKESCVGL

In the case of `Nc1c2c(nc3c1CCCC3)CCCC2.O=C(O)CCC(=O)O` [octahydroaminoacridine succinate, 9-amino-1,2,3,4,5,6,7,8-octahydroacridine succinate], the “inhibiting ability to cholinesterase B relative to rivastigmine” value [1] was 500 times and the “inhibiting ability to cholinesterase D relative to rivastigmine” value (cholinesterase D) was 2000 times.
`COc1cc2c(cc1OC)C(=O)C(CC1CCN(Cc3ccccc3)CC1)C2` (centres unmarked) [Positive control group, donepezil hydrochloride] was tested, and the “adopted strategy for reaching the platform (the peripheral type and the random type %)” value ([2]; Day 1) was 97.50%, the “orientation angle for reaching the platform” value ([2]; Day 1) was 75.41 ± 22.31 ° and the “speed for reaching the platform” value ([2]; Day 1) was 16.03 ± 4.22 cm/s. The “swimming path length for reaching the platform” value ([2]; Day 1) was 1029.43 ± 453.12 cm, the “time for reaching the platform” value ([2]; Day 1) was 72.43 ± 30.97 s and the “adopted strategy for reaching the platform (the peripheral type and the random type %)” value ([2]; Day 2) was 75.00%. For the same molecule, the “orientation angle for reaching the platform” value ([2]; Day 2) was 50.14 ± 23.02 °, the “speed for reaching the platform” value ([2]; Day 2) was 20.78 ± 5.83 cm/s and the “swimming path length for reaching the platform” value ([2]; Day 2) was 762.34 ± 562.06 cm. For the same molecule, the “time for reaching the platform” value ([2]; Day 2) was 38.98 ± 33.812 s, the “adopted strategy for reaching the platform (the peripheral type and the random type %)” value ([2]; Day 3) was 77.50% and the “orientation angle for reaching the platform” value ([2]; Day 3) was 52.85 ± 27.04 °. The “speed for reaching the platform” value ([2]; Day 3) was 19.15 ± 4.64 cm/s, the “swimming path length for reaching the platform” value ([2]; Day 3) was 572.83 ± 576.82 cm and the “time for reaching the platform” value ([2]; Day 3) was 34.41 ± 37.35 s. The “adopted strategy for reaching the platform (the peripheral type and the random type %)” value ([2]; Day 4) was 62.50** %, the “orientation angle for reaching the platform” value ([2]; Day 4) was 46.37 ± 17.86 ° and the “speed for reaching the platform” value ([2]; Day 4) was 22.07 ± 8.05 cm/s. The “swimming path length for reaching the platform” value ([2]; Day 4) was 312.04 ± 316.86 cm, the “time for reaching the platform” value ([2]; Day 4) was 29.32 ± 39.89 s and the “adopted strategy for reaching the platform (the peripheral type and the random type %)” value ([2]; Day 5) was 67.50** %. The “orientation angle for reaching the platform” value ([2]; Day 5) was 50.54 ± 24.98 °, the “speed for reaching the platform” value ([2]; Day 5) was 19.67 ± 3.94 cm/s and the “swimming path length for reaching the platform” value ([2]; Day 5) was 495.72 ± 380.99 cm. The “time for reaching the platform” value ([2]; Day 5) was 29.16 ± 24.95 s, the “adopted strategy for reaching the platform (the peripheral type and the random type %)” value ([2]; Day 6) was 62.50* % and the “orientation angle for reaching the platform” value ([2]; Day 6) was 44.21 ± 34.00 °. The “speed for reaching the platform” value ([2]; Day 6) was 18.28 ± 5.12 cm/s, the “swimming path length for reaching the platform” value ([2]; Day 6) was 413.33 ± 483.35 cm and the “time for reaching the platform” value ([2]; Day 6) was 28.99 ± 35.61 s. The “swimming speed vs model group” value [2, 6] was “not obviously changed”, the “latent period for reaching the platform vs model group” value ([2]; donepezil hydrochloride 1.75 mg/kg, Day 1 to Day 6, no statistical significance) was “shortened trend” and the “orientation angle vs model group” value [2, 7] was “obviously decreased”. For the same molecule, the “swimming path length for reaching the platform vs model group” value ([2]; donepezil hydrochloride 1.75 mg/kg, Day 4, P<0.05) was “obviously shortened”, the “average speed and orientation angle vs model group” value [2, 8] was “not obviously changed” and the “number of crossing the platform vs model group” value [2, 9] was “obviously increased”. For the same molecule, the “percentage of the swimming path length in the platform area quadrants to the total swimming path length vs model group” value [2, 9] was “obviously increased”, the “residence time in the platform area vs model group” value [2, 9] was “obviously increased” and the “residence time in the platform quadrants within 2 minutes vs model group” value [2, 9] was “obviously increased”. For the same molecule, the “conversion from the peripheral type and the random type to the tendency type and the linear type in the strategy for looking for the platform” value [2, 10] was “obviously increased”, the “step-down error number vs model group” value ([3]; Day 1 and Day 2) was “obviously reduced” and the “error latency vs model group” value ([3]; Day 2) was “obviously prolonged”. The “adopted strategy for reaching the platform (the peripheral type and the random type %)” value ([4]; Day 1, 1.75 mg/kg intragastric) was 65.00* %, the “orientation angle for reaching the platform” value ([4]; Day 1, 1.75 mg/kg intragastric) was 58.85 ± 15.35 ° and the “speed for reaching the platform” value ([4]; Day 1, 1.75 mg/kg intragastric) was 21.15 ± 5.56 cm/s. The “swimming path length for reaching the platform” value ([4]; Day 1, 1.75 mg/kg intragastric) was 1105.00 ± 578.29 cm, the “time for reaching the platform” value ([4]; Day 1, 1.75 mg/kg intragastric) was 58.42 ± 23.42 s and the “adopted strategy for reaching the platform (the peripheral type and the random type %)” value ([4]; Day 2, 1.75 mg/kg intragastric) was 62.50%. The “orientation angle for reaching the platform” value ([4]; Day 2, 1.75 mg/kg intragastric) was 61.54 ± 17.41 °, the “speed for reaching the platform” value ([4]; Day 2, 1.75 mg/kg intragastric) was 22.68 ± 5.82 cm/s and the “swimming path length for reaching the platform” value ([4]; Day 2, 1.75 mg/kg intragastric) was 579.08 ± 316.12 cm. For the same molecule, the “time for reaching the platform” value ([4]; Day 2, 1.75 mg/kg intragastric) was 33.96 ± 17.06 s, the “adopted strategy for reaching the platform (the peripheral type and the random type %)” value ([4]; Day 3, 1.75 mg/kg intragastric) was 62.50* % and the “orientation angle for reaching the platform” value ([4]; Day 3, 1.75 mg/kg intragastric) was 48.94 ± 13.42 °. For the same molecule, the “speed for reaching the platform” value ([4]; Day 3, 1.75 mg/kg intragastric) was 21.19 ± 3.15 cm/s, the “swimming path length for reaching the platform” value ([4]; Day 3, 1.75 mg/kg intragastric) was 606.25 ± 279.18 cm and the “time for reaching the platform” value ([4]; Day 3, 1.75 mg/kg intragastric) was 30.17 ± 14.50 s. For the same molecule, the “adopted strategy for reaching the platform (the peripheral type and the random type %)” value ([4]; Day 4, 1.75 mg/kg intragastric) was 67.50%, the “orientation angle for reaching the platform” value ([4]; Day 4, 1.75 mg/kg intragastric) was 58.94 ± 22.56 ° and the “speed for reaching the platform” value ([4]; Day 4, 1.75 mg/kg intragastric) was 25.79 ± 9.79 cm/s. The “swimming path length for reaching the platform” value ([4]; Day 4, 1.75 mg/kg intragastric) was 615.78 ± 385.17 cm, the “time for reaching the platform” value ([4]; Day 4, 1.75 mg/kg intragastric) was 23.92 ± 12.45 s and the “adopted strategy for reaching the platform (the peripheral type and the random type %)” value ([4]; Day 5, 1.75 mg/kg intragastric) was 50.00%. The “orientation angle for reaching the platform” value ([4]; Day 5, 1.75 mg/kg intragastric) was 49.64 ± 17.65 °, the “speed for reaching the platform” value ([4]; Day 5, 1.75 mg/kg intragastric) was 24.88 ± 8.76 cm/s and the “swimming path length for reaching the platform” value ([4]; Day 5, 1.75 mg/kg intragastric) was 586.80 ± 405.09 cm. The “time for reaching the platform” value ([4]; Day 5, 1.75 mg/kg intragastric) was 21.94 ± 11.16 s, the “adopted strategy for reaching the platform (the peripheral type and the random type %)” value ([4]; Day 6, 1.75 mg/kg intragastric) was 47.50** % and the “orientation angle for reaching the platform” value ([4]; Day 6, 1.75 mg/kg intragastric) was 53.54 ± 19.68 °. For the same molecule, the “speed for reaching the platform” value ([4]; Day 6, 1.75 mg/kg intragastric) was 21.02 ± 6.67 cm/s, the “swimming path length for reaching the platform” value ([4]; Day 6, 1.75 mg/kg intragastric) was 348.06 ± 202.65 cm and the “time for reaching the platform” value ([4]; Day 6, 1.75 mg/kg intragastric) was 17.87 ± 12.66 s. The Average speed ([4]; Day 7, 1.75 mg/kg intragastric) was 24.60 ± 10.18 cm/s, the “Number of crossing the platform” value ([4]; Day 7, 1.75 mg/kg intragastric) was 9.40 ± 5.16 and the Orientation angle ([4]; Day 7, 1.75 mg/kg intragastric) was 9.40 ± 5.17 °. The “Swimming path length in the platform area/total swimming path length × 100%” value ([4]; Day 7, 1.75 mg/kg intragastric) was 33.02 ± 9.98%, the “Time in the platform area” value ([4]; Day 7, 1.75 mg/kg intragastric) was 3.06 ± 2.24 s and the “Time in the platform quadrants” value ([4]; Day 7, 1.75 mg/kg intragastric) was 42.21 ± 12.71 s. For the same molecule, the “orientation angle and swimming speed vs model group” value [4, 6] was “not obviously changed”, the “swimming path length for reaching the platform vs model group” value ([4]; donepezil hydrochloride 1.75 mg/kg, Day 2, Day 3 and Day 6, P<0.05) was “obviously shortened” and the “latent period for reaching the platform vs model group” value ([4]; donepezil hydrochloride 1.75 mg/kg, Day 5 and Day 6, P<0.05 or P<0.01) was “obviously shortened”. The “average speed and orientation angle vs model group” value [4, 8] was “not obviously changed”, the “residence time in the platform quadrants within 2 minutes vs model group” value [4, 9] was “obviously increased” and the “number of crossing the platform, residence time in the platform area, and percentage of the swimming path length in the platform area quadrants to the total swimming path length vs model group” value ([4]; donepezil hydrochloride 1.75 mg/kg, Day 7, no statistical significance) was “increased trend”. The “conversion from the peripheral type or the random type to the tendency type or the linear type in the strategy for looking for the platform” value [4, 10] was “obviously increased”, the “step-down error number vs model group” value ([5]; donepezil hydrochloride 1.75 mg/kg, Day 1 and Day 2, P<0.05) was “obviously reduced” and the “error latency vs model group” value [5, 7] was “obviously prolonged”. For the same molecule, the “Day 1, Error number” value [5, 11] was 5.40 ± 3.06, the “Day 2, Error latency” value [5, 11] was 244.10 ± 77.83 s and the “Day 2, Error number” value [5, 11] was 1.10 ± 1.28.
